Key:
Solubility in water = type: physicochemical
MTT cytotoxicity assay = type: cell-based, human; settings: human, HCEC (human corneal epithelial) cells
[1] = tested on: HCEC (human corneal epithelial cell); assay: MTT cytotoxicity assay; type: cell-based; settings: MTT, tested up to 100 μM (data not shown)
[2] = tested on: HepG2 (human liver carcinoma); assay: MTT cytotoxicity assay; type: cell-based; settings: tested up to 100 μM (data not shown)
[3] = tested on: HT-29 (human colorectral cancer); assay: MTT cytotoxicity assay; type: cell-based; settings: tested up to 100 μM (data not shown)
[4] = tested on: H9C2 (normal, rat myocytes); assay: MTT cytotoxicity assay; type: cell-based; settings: tested up to 100 μM (data not shown)
hypertensive rabbits = assay: Hypertensive rabbit IOP lowering study; type: in vivo; settings: topical
[5] = one drop (50 μL) of 1% solution (BRZ 1% suspension)

Solubility (Solubility in water) [%] | Structure (SMILES) | viability at 96 h, 1 % (MTT cytotoxicity assay) [%] | viability at 96 h, 2 % (MTT cytotoxicity assay) [%] | toxicity to HCEC cells [1] | toxicity to HepG2 cells [2] | toxicity to HT-29 cells [3] | toxicity to H9C2 cells [4] | return to basal IOP values (hypertensive rabbits; 1% suspension) [h] | maximal IOP lowering (hypertensive rabbits; [5]) | time of maximal IOP lowering effect post-administration (hypertensive rabbits; [5]) [h]
0.21 | CC(=O)Nc1nnc(S(N)(=O)=O)s1 [AAZ, acetazolamide] | 80 | 10 | did not display any appreciable toxicity | did not display any appreciable toxicity | did not display any appreciable toxicity | did not display any appreciable toxicity |  |  | 
0.05 | CCN[C@H]1CN(CCCOC)S(=O)(=O)c2sc(S(N)(=O)=O)cc21 [BRZ, brinzolamide] | 40 |  | did not display any appreciable toxicity | did not display any appreciable toxicity | did not display any appreciable toxicity | did not display any appreciable toxicity | 3 | around 5 mm Hg | 1
0.67 | CCN[C@H]1C[C@H](C)S(=O)(=O)c2sc(S(N)(=O)=O)cc21 [DZA, dorzolamide] |  |  |  |  |  |  |  |  | 

Source: paper PMC6968511 (Journal of Enzyme Inhibition and Medicinal Chemistry, 2019)
